Reference: patent EP2077274A1, “Synthetic analogs of human beta-defensins having antimicrobial, antiviral and chemotactic activity” (Ceinge Biotecnologie Avanzate s.c. a r.l., priority 2008, dated 2009)
No end group written: not given here.

How the values were obtained:
[1] = test system: Enterococcus faecalis ATCC 29212; test: Colony-forming unit (CFU) assay of antibacterial activity with NaCl dependence; format: cell-based; conditions: for antibacterial activity, inhibition by NaCl: 50 mM NaCl; for antibacterial activity compared to wild-type hBD3: peptide 12.5 µM, p<0.01; for antibacterial activity compared to wild-type hBD3 / antibacterial activity at 200 mM NaCl: 200 mM NaCl; for antibacterial activity at 200 mM NaCl: p<0.001 versus hBD3 in the same conditions
Description: (§1) Colony-forming unit (CFU) assay of the antibacterial activity of the peptides against P.aeruginosa ATCC (American Type Culture Collection, Manassas, VA, USA) 27853, Enterococcus faecalis ATCC 29212 and Escherichia coli ATCC 25922 was performed. The strains were grown in aerobic conditions in tryptic soy broth (Difco Laboratories, Detroit, MI, USA) at 37°C. Cells from exponential-phase cultures were centrifuged, washed and suspended to a density of 1 x 10^5 CFU/mL in sterile 10 mM potassium phosphate buffer, pH 7.4, and incubated in the presence of the peptides. The incubation time was 2 h at 37°C. […] For salt dependence assay, NaCl in a range of concentrations potentially present in the airway surface fluid of normal subjects and CF patients (33), i.e., 0, 50, 100 and 200 mM NaCl, were included in the incubation buffer. The cells were then diluted serially in the same buffer, spread on tryptone-yeast (Difco Laboratories) plates and the colonies were counted after 18 h at 37°C. Each assay was performed in triplicate. Bactericidal activity (mean and SD of three assays) is expressed as the ratio between colonies counted and the number of colonies on a control plate.

P.aeruginosa ATCC 27853 = test: as above; format: cell-based; conditions: for antibacterial activity, inhibition by NaCl: 50 mM NaCl; for antibacterial activity compared to wild-type hBD3 / antibacterial activity at 200 mM NaCl: 200 mM NaCl; for antibacterial activity at 200 mM NaCl: p<0.001 versus hBD3 in the same conditions
Description: as §1

[2] = test system: Escherichia coli ATCC 25922; test: as above; format: cell-based; conditions: for antibacterial activity, inhibition by NaCl: 50 mM NaCl; for antibacterial activity compared to wild-type hBD3: peptide 12.5 µM, p<0.01; for antibacterial activity compared to wild-type hBD3 / antibacterial activity at 200 mM NaCl: 200 mM NaCl; for antibacterial activity at 200 mM NaCl: p<0.001 versus hBD3 in the same conditions
Description: as §1

neutrophils = test: Chemotaxis assay (leukocyte migration, calcein fluorescence); format: cell-based, human; conditions: for chemotactic activity compared to wild-type hBD1: peptide 1.25 µM
Description: (§2) Preparation of leukocytes-Monocytes and neutrophils were isolated as described in the StemSep Cell Technical Manual (Stem Cell Technologies, Vancouver, Canada). Briefly, to obtain neutrophils, buffy coats were diluted 1:20 in NH4Cl supplemented with 2 mM EDTA and incubated on ice for 20 min. Cell suspensions were centrifuged for 10 min at 600 X g at room temperature with the brake off and washed three times with phosphate buffered saline (PBS) supplemented with 2% foetal bovine serum and 2 mM EDTA. Cell viability was assessed by analysis of light scatter properties, and cell count was performed using a logical gate strategy based on Trucount tubes (Becton-Dickinson, San Jose, CA, USA). Neutrophils were purified from lysed buffy coats using StemSep negative selection system. To this purpose, 100x10^6 mononuclear cells from lysed buffy coats were incubated with 100 µL of custom antibody cocktail for human granulocytes enrichment (Stem Cell Technologies) for 45 min on ice. In addition, cell suspensions were incubated with 60 µL of magnetic colloid for 30 minutes on ice. Finally, the samples were run through a 0.3-inch column matrix in a negative selection system in which the unwanted cells were immunomagnetically labelled and bound to the magnetic column. Neutrophils, after the separation, were collected in the column flowthrough without antibody bound to their surface. In order to obtain monocytes, human buffy coats were layered over a Ficoll-Paque density gradient and spun at 600 X g for 30 min with the brake off. The mononuclear cell-rich fractions were washed three times with PBS supplemented with 2% foetal bovine serum (FBS) and 2 mM EDTA. Cell viability was assessed by analysis of light scatter properties, and cell count was performed using a logical gate strategy based on Trucount tubes (Becton-Dickinson). A custom antibody cocktail for human monocyte enrichment (Stem Cells Technologies) was used for immunomagnetic negative selection of monocytes. Mononuclear cells were incubated as above described for neutrophils. Both neutrophils and monocytes were resuspended in 5.0 mL of RPMI-1640 (Sigma-Aldrich, St Louis, MO, USA) without phenol red containing 10% heat-treated FBS. Calcein AM (Molecular Probes, Eugene, OR, USA) was added to the cell suspensions (5.0 mL) at a concentration of 5 µg/mL and the cells were incubated for 30 min at 37°C. Cell suspensions were washed twice with PBS and then resuspended in RPMI-FBS to the desired concentration.
(§3) Measurement of leukocytes migration-The chemotaxis assay of monocytes and neutrophils (90-95% of purity) was performed in 96-well disposable chemotaxis chambers (Neuroprobe, Gaithersburg, MD, USA) using polyvinyl-pyrrolidone-free polycarbonate membranes with an […] pore size for monocytes and with a […] pore size for neutrophils. Chemotaxis was measured by fluorescence detection, using the calcein fluorescence signal. The fluorescence was read in a microplate fluorescence reader (Victor 3 1420 Multilabel Counter, Perkin Elmer) with excitation/emission wave-length settings of 485/530 nm. We calculated the migration index as the ratio between the sample mean fluorescence (after subtraction of the negative control mean fluorescence)/positive control mean fluorescence. Each assay was performed in quadruplicate.

monocytes = test: as above; format: cell-based, human; conditions: for chemotactic activity compared to wild-type hBD1: peptide 1.25 µM
Description: as §2, §3

HSV-1 = HSV-1 infectivity plaque assay on Vero cell monolayers (co-exposure, virus pre-treatment, cell pre-exposure); format: cell-based; conditions: for % of infectivity: peptide 20 µM, mean and SD of 3 replicates; for inhibition of HSV infectivity: peptide 50 µM, reduced form
Description: Vero cells were grown in Dulbecco's modified Eagle's medium (DMEM) supplemented with 10% foetal calf serum. HSV-1 carrying a IacZ gene driven by the cytomegalovirus (CMV) IE-1 promoter to express beta-galactosidase was propagated as described (33). Peptides were dissolved in DMEM with serum and used at different concentrations. All experiments were conducted in parallel with scrambled peptides and no-peptide controls. […] Non-penetrated viruses were inactivated by citrate buffer at pH 3.0 after the 45 min incubation with cells at 37°C. The cells were then incubated for 48 h at 37°C in DMEM supplemented with carboxymethylcellulose (CMC). Monolayers were fixed, stained with 5-bromo-4-chloro-3-indolyl-beta-D-galactopyranoside (X-gal) and plaque numbers were scored. Experiments were performed in triplicate and the percentage of inhibition was calculated with respect to no-peptide control experiments. ii) For "virus pre-treatment" experiments, approximately 2 x 10^4 plaque forming units (PFU) of HSV-1 were incubated in the presence of 20 µM of peptides for 45 min at 37°C, then titrated on Vero cell monolayers. iii) For "cell pre-exposure" experiments, Vero cells were incubated with 20 µM of peptides for 30 min at 4°C. Peptides were removed, and cells were washed with phosphate-buffered saline before being infected with serial dilutions of HSV-1 and incubated for 45 min at 37°C.
Monolayers were exposed to different concentrations (10, 50, 100, 250 and 500 µM) of each peptide for 24 h, and cell viability was evaluated with the LDH assay. There was no significant difference between the viability of cells exposed to the peptides and that of cells exposed to control (data not shown). Thus, we evaluated the antiviral activity of wild type peptides and their analogs in: co-exposure experiments (cell + virus + peptide at zero time); virus pre-treatment (virus + peptide incubation before cell infection); and cell pre-exposure (cell + peptide incubation before virus infection). This would allow to evaluate if, and in which phase, the peptides could inhibit the virus infectivity.
For co-exposure experiments, we incubated the peptides on the monolayers of Vero cells together with the virus inoculum for 45 min before low pH treatment. The reduced form of wild-type hBD1 and hBD3 and analogs 1C, 1 N, 3C, 3N were used in all subsequent experiments. […] No control (peptide excluded) inhibited HSV-1 infectivity under similar experimental conditions.

[3] = 200 mM NaCl compared to absence of salt
[4] = NaCl between 100 and 150 mM, p<0.001

Substance	antibacterial activity, inhibition by NaCl [1]	antibacterial activity, inhibition by NaCl (P.aeruginosa ATCC 27853)	antibacterial activity, inhibition by NaCl [2]	chemotactic activity compared to wild-type hBD1 (neutrophils)	chemotactic activity compared to wild-type hBD1 (monocytes)	antibacterial activity at 200 mM NaCl [1]	antibacterial activity at 200 mM NaCl (P.aeruginosa ATCC 27853)	antibacterial activity at 200 mM NaCl [2]	% of infectivity (HSV-1; cell pre-exposure)	% of infectivity (HSV-1; co-exposure)	% of infectivity (HSV-1; virus pre-incubation)	also measured
GIINTLQKYYCRVRGGRCAVLSCPIFTKIQGTCSTRGAKCCK [3CI]	inhibited already by 50 mM NaCl	inhibited already by 50 mM NaCl	inhibited already by 50 mM NaCl	significantly higher	significantly lower	–	–	–	–	–	–	antibacterial activity compared to wild-type hBD3 [1]: significantly higher; antibacterial activity compared to wild-type hBD3 (P.aeruginosa ATCC 27853; peptide 12.5 µM, p<0.01): significantly higher; antibacterial activity compared to wild-type hBD3 [2]: significantly higher
QKYYCRVRGGRCAVLSCLPKEEQIGKCSTRGRKCCRRKK [3N]	–	–	–	comparable to that of hBD1	–	displayed antibacterial activity	displayed antibacterial activity	displayed antibacterial activity	13.4±4.2%	20.4±2.4%	8.5±2.1 %	inhibition of HSV infectivity (HSV-1; co-exposure): 90%
DHYNCVSSGGQCLYSACLPKEEQIGKCYRGKAKCCK [1I]	inhibited already by 50 mM NaCl	inhibited already by 50 mM NaCl	inhibited already by 50 mM NaCl	significantly lower activity	–	–	–	–	–	–	–	–
GIINTLQKYYCRVRGGRCAVLSCPIFTKIQGTCSTRGRKCCRRKK [3I]	–	–	–	–	comparable to that of wild-type hBD1	displayed antibacterial activity	displayed antibacterial activity	displayed antibacterial activity	–	–	–	–
GIINTLQKYYCRVRGGRCAVLSCLPKEEQIGKCSTRGRKCCRRKK-OH (cysteines drawn unpaired) [hBD3 wt, reference compound]	–	–	–	significantly lower activity	significantly higher	–	–	–	14.5±2.3%	23.4±2.5%	45±1.5%	antibacterial activity, effect of NaCl [1, 3]: significantly inhibited; antibacterial activity, effect of NaCl (P.aeruginosa ATCC 27853; peptide 2.5 µM, 50 mM NaCl versus 0 mM NaCl): unaffected; antibacterial activity, effect of NaCl (P.aeruginosa ATCC 27853; peptide 2.5 µM, 100 mM NaCl versus 0 mM NaCl, p<0.01): slightly inhibited; antibacterial activity, effect of NaCl (P.aeruginosa ATCC 27853; peptide 2.5 µM, 200 mM NaCl versus 0 mM NaCl, p<0.001): greatly inhibited; antibacterial activity, effect of NaCl (P.aeruginosa ATCC 27853; peptide 12.5 µM, 200 mM NaCl versus 0 mM NaCl, p<0.001): strongly inhibited; antibacterial activity, effect of NaCl [2, 3]: significantly inhibited; inhibition of HSV infectivity (HSV-1; co-exposure): 100%; chemotactic activity, effect of NaCl (neutrophils; NaCl from 100 to 150 mM, p<0.001): significantly reduced; chemotactic activity, effect of NaCl (monocytes; 200 mM NaCl): comparable to that obtained at 100 mM NaCl; chemotactic activity, effect of NaCl (monocytes; [4]): significantly increased
GIINTLDHYNCVSSGGQCLYSACPIFTKIQGTCYRGKAKCCK [1N]	inhibited already by 50 mM NaCl	inhibited already by 50 mM NaCl	inhibited already by 50 mM NaCl	significantly lower activity	comparable to that of wild-type hBD1	–	–	–	64.8±3.5 %	73.2±4.2 %	75.6±3.5 %	antibacterial activity compared to wild-type hBD3 [1]: significantly higher; antibacterial activity compared to wild-type hBD3 (P.aeruginosa ATCC 27853; peptide 12.5 µM, p<0.01): significantly higher; antibacterial activity compared to wild-type hBD3 [2]: significantly higher
DHYNCVSSGGQCLYSACLPKEEQIGKCYRGKRKCCRRKK [1CI]	–	–	–	significantly lower activity	significantly lower	displayed antibacterial activity	displayed antibacterial activity	displayed antibacterial activity	–	–	–	–
DHYNCVSSGGQCLYSACPIFTKIQGTCYRGKAKCCK [hBD1 wt, wild type human beta-defensin 1, reference compound]	inhibited already by 50 mM NaCl	inhibited already by 50 mM NaCl	inhibited already by 50 mM NaCl	–	–	–	–	–	71.3±1.2 %	74.7±2.4 %	65.3±3.8 %	chemotactic activity, effect of NaCl (neutrophils; NaCl concentrations up to 200 mM): did not significantly affect; chemotactic activity, effect of NaCl (monocytes; 200 mM NaCl): comparable to that obtained at 100 mM NaCl; chemotactic activity, effect of NaCl (monocytes; [4]): significantly increased
GIINTLQKYYCRVRGGRCAVLSCLPKEEQIGKCSTRGAKCCK [3C]	–	–	–	–	–	–	–	–	50.3±3.4 %	61.7±3.4 %	32.4±4.3%	–
